Test results from patent US3937838A, “Orally active bronchospasmolytic compounds and their preparation” (priority 1966, dated 1976).
Like-named read-outs stand apart in the source and are kept apart here.

Tests used:
[1] = tested on: bronchospasm induced by histamine aerosol; assay: Protecting effect against histamine aerosol in intact guinea pigs (Example 7c); format: in vivo, guinea pig; details: for ED50: Cavia porcellus, m ± s.e., read-out: ED50 (protecting 50 per cent of the animals for more than 4 minutes)
Protocol: The compounds KWD2109 and KWD2025 have been compared in preventing bronchospasm induced by histamine aerosol in guinea pigs.
The drug was injected intraperitoneally 15 minutes (Table 2) or administered orally 30 minutes (Table 3) before histamine treatment. The dose of the drugs protecting 50 per cent of the animals for more than 4 minutes is denoted "ED50". In untreated animals only 1-2 percent will withstand the histamine aerosol for more than 4 minutes.
To study the duration of the effect, 2 mg/kg was administered orally to intact guinea pigs at different time intervals before the histamine treatment. Two series each including eleven groups of six animals was studied. The groups were tested in histamine aerosol 10, 20, 30, 40, 50, 60, 120, 180, 240, 300 and 360 minutes after the administration of the compound. The per cent of animals in each group protected more than 4 minutes and more than 10 minutes was determined.

[2] = tested on: isolated guinea pig auricle; assay: Dual bath preparation, effect on left auricle (Example 8a)
Protocol: The left auricle was dissected out and mounted together with spirally-cut trachea from the same animal in a 100 ml bath in Kreb's solution (37°C.) well aereated with a mixture of oxygen (95%) and carbon dioxide (5%). The auricle was electrically stimulated with square wave pulses from a Techtronic Stimulator (voltage 2-4; duration: 10 m sec; frequency 1 per second). This is, in general, the same procedure described above in Example 5c.
Using the dual bath preparation, tests were made of the effect on the trachea and auricle of KWD2025 (of the present invention) and of the known drugs KWD2109 and epinephrine. The drug to be tested was added to the bath in the predetermined amount and allowed to act upon the organs for 10 minutes.

heart rate = assay: Tests on anesthetized cat, heart rate with bronchospasmolytic effect (Example 8b); format: in vivo
Description: The relative bronchospasmolytic and cardiovascular effects of compounds can be tested in the method of Konzett & Rossler (see Example 5b above). As has already been described, the test animal is force-ventilated and the effect of various compounds in controlling histamine-induced bronchoconstriction, as reflected by overflow of the forced ventilation in excess of lung capacity, is used as a measure of the bronchospasmolytic effect. Concurrently in the same animal, changes in heart rate and arterial mean pressure can be simultaneously recorded.
In carrying out this procedure, bronchoconstriction in the test animal is induced by injection of histamine. The ability of KWD2025 and KWD2109 to control the histamine-inducred bronchoconstriction is measured by injecting the test compound 3 minutes before injection of […], and before injection of histamine, the effect of the test compound on the heart rate is recorded.

[3] = tested on: isolated guinea pig trachea; assay: Bronchospasmolytic effect in vitro, isolated guinea pig trachea (Example 7a); details: Table 1, six experiments
Protocol: The trachea from a guinea pig was dissected out and spirally out. It was mounted in a water-jacketed bath (37°C.) in Kreb's solution and aerated with oxygen (95%) and carbon dioxide (5%). Pilocarpine (1 μg/ml) was added. The load was about 2 g and the relaxation was recorded by means of a Grass force displacement transducer and a Grass polygraph model 5. The compound KWD2109 was tested on six preparations in which epinephrine was used as reference.

[4] = tested on: isolated guinea pig heart; assay: Effect on isolated guinea pig heart, Langendorff (Example 7d)
Protocol: The isolated guinea pig heart was perfused according to Langendorff. The method used is described by Anden et al. (Acta. Pharmacol. et Toxicol. 21, 247, 1964). Contractions in the heart were recorded by means of a force displacement transducer and aa Grass polygraph Model 7. Epinephrine was used as reference. KWD2109 and KWD2025 were tested on the same preparation. The comparisons of effects were based on dose for 50 percent increase in chronotropic effect and 10 percent increase in inotropic effect.

In the case of Oc1ccc(C(O)CNC2CCC2)cc1O (stereo not drawn) [KWD2109, 1-(3',4'-dihydroxyphenyl)-2-(cyclobutylamino)-ethanol], the ED50 ([1]; ip, 0.25 h, i.p., 15 minutes before histamine-aerosol) is reported as 0.17 ± 0.02 mg/kg, the ED50 ([1]; po, 0.5 h, peroral, 30 minutes before histamine-aerosol) is reported as 0.55 ± 0.14 mg/kg and the “protecting activity relative to KWD2025” value ([1]; intraperitoneal) is reported as 3.5 times. For the same compound, the “protecting activity relative to KWD2025” value ([1]; oral) was 3.1 times, the “bronchospasmolytic activity relative to KWD2025 after intraperitoneal and oral administration” value ([1]; summary b256) was “about 3 times” and the “effect on auricle relative to epinephrine at doses with same effect on trachea” value ([2]; equi-effective doses on trachea) was “of the same order as that of epinephrine”. The “effect on force of contraction in auricle in concentrations relaxing the trachea” value ([2]; same bath) was “increased the force of contraction in the auricle in concentrations where it relaxed the trachea”, the “effect on heart rate at equal bronchospasmolytically effective doses” value (heart rate) was “more pronounced effect on the heart rate than did KWD2025” and the “bronchospasmolytic effect x epinephrine” value [3] was 8.6 ± 1.7 times. The “therapeutic index, bronchospasmolytic effect over effect on the heart (inotropic)” value ([4]; KWD2025 given index 1.0) was 0.083, the “effect on force x epinephrine” value ([4]; dose for 10 percent increase in inotropic effect, Table 5) was 5.5 ± 3.2 and the “effect on heart rate x epinephrine” value ([4]; dose for 50 percent increase in chronotropic effect, Table 4) was 11.8 ± 6.5.
